# Test system: rice (Diamant variety)
# Assay: Rice seed treatment with BHMPA salts: germinating power
# Format: in vivo
# Summary of the method: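 Seeds (50 per Petri dish on two layers of filter paper) soaked 1 h in BHMPA or its Ca, Mg, Na, Co, Mn, Cu or Zn salts at 1·10^−6-1·10^−12%, with water controls. Germination energy read on day 4, germination on day 8 (wheat) or day 7 (rice, corn), as % means of four replicates. Germinating power taken as root and sprout length plus wet and dry mass per 100 seedlings.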
# [1] = rice seed treatment, comparison with Melaphen (Table XXXIII), solution 1 · 10^−9%
# [2] = rice seeds, solution concentration 1 · 10^−6%
# [3] = rice seeds, solution concentration 1 · 10^−7%
# [4] = rice seeds, solution concentration 1 · 10^−8%
# [5] = rice seeds, solution concentration 1 · 10^−9%
# [6] = rice seeds, solution concentration 1 · 10^−10%
# [7] = rice seeds, solution concentration 1 · 10^−11%
# [8] = rice seeds, solution concentration 1 · 10^−12%
# [9] = rice, vs control, 1·10^−9% solution
structure (smiles),measurement,setting,value
"O=P([O-])(CO)CO.O=P([O-])(CO)CO.[Ca+2] [Ca-salt, Calcium BHMPA Salt]",optimum concentration for treating rice seeds before sowing,rice,1·10^−9%
same,"Length, root",[1],6.2 cm
same,"Length, root, + % to control",[1],29%
same,"Length, sprout",[1],3.5 cm
same,"Length, sprout, + % to control",[1],35%
same,"Mass, dry, root",[1],0.23 g/100 plantlings
same,"Mass, dry, root, + % to control",[1],9.5%
same,"Mass, dry, sprout",[1],0.27 g/100 plantlings
same,"Mass, dry, sprout, + % to control",[1],8%
same,"Mass, wet, root",[1],1.33 g/100 plantlings
same,"Mass, wet, root, + % to control",[1],36%
same,"Mass, wet, sprout",[1],2.24 g/100 plantlings
same,"Mass, wet, sprout, + % to control",[1],48%
same,"Length, root",[2],5.7 cm
same,"Length, root, + % to control",[2],10%
same,"Length, sprout",[2],2.8 cm
same,"Length, sprout, + % to control",[2],12%
same,"Mass, dry, root",[2],0.19 g/100 plantlings
same,"Mass, dry, root, + % to control",[2],12%
same,"Mass, dry, sprout",[2],0.23 g/100 plantlings
same,"Mass, dry, sprout, + % to control",[2],9.5%
same,"Mass, wet, root",[2],1.10 g/100 plantlings
same,"Mass, wet, root, + % to control",[2],14.5%
same,"Mass, wet, sprout",[2],1.92 g/100 plantlings
same,"Mass, wet, sprout, + % to control",[2],9%
same,"Length, root",[3],5.9 cm
same,"Length, root, + % to control",[3],13%
same,"Length, sprout",[3],3.0 cm
same,"Length, sprout, + % to control",[3],20%
same,"Mass, dry, root",[3],0.24 g/100 plantlings
same,"Mass, dry, root, + % to control",[3],41%
same,"Mass, dry, sprout",[3],0.26 g/100 plantlings
same,"Mass, dry, sprout, + % to control",[3],24%
same,"Mass, wet, root",[3],1.21 g/100 plantlings
same,"Mass, wet, root, + % to control",[3],26%
same,"Mass, wet, sprout",[3],2.16 g/100 plantlings
same,"Mass, wet, sprout, + % to control",[3],23%
same,"Length, root",[4],6.3 cm
same,"Length, root, + % to control",[4],21%
same,"Length, sprout",[4],3.1 cm
same,"Length, sprout, + % to control",[4],24%
same,"Mass, dry, root",[4],0.27 g/100 plantlings
same,"Mass, dry, root, + % to control",[4],59%
same,"Mass, dry, sprout",[4],0.28 g/100 plantlings
same,"Mass, dry, sprout, + % to control",[4],33%
same,"Mass, wet, root",[4],1.24 g/100 plantlings
same,"Mass, wet, root, + % to control",[4],29%
same,"Mass, wet, sprout",[4],2.25 g/100 plantlings
same,"Mass, wet, sprout, + % to control",[4],28%
same,"Length, root",[5],6.6 cm
same,"Length, root, + % to control",[5],27%
same,"Length, sprout",[5],3.2 cm
same,"Length, sprout, + % to control",[5],28%
same,"Mass, dry, root",[5],0.30 g/100 plantlings
same,"Mass, dry, root, + % to control",[5],76%
same,"Mass, dry, sprout",[5],0.32 g/100 plantlings
same,"Mass, dry, sprout, + % to control",[5],52%
same,"Mass, wet, root",[5],1.29 g/100 plantlings
same,"Mass, wet, root, + % to control",[5],34%
same,"Mass, wet, sprout",[5],2.36 g/100 plantlings
same,"Mass, wet, sprout, + % to control",[5],34%
same,"Length, root",[6],6.4 cm
same,"Length, root, + % to control",[6],23%
same,"Length, sprout",[6],3.0 cm
same,"Length, sprout, + % to control",[6],20%
same,"Mass, dry, root",[6],0.28 g/100 plantlings
same,"Mass, dry, root, + % to control",[6],65%
same,"Mass, dry, sprout",[6],0.29 g/100 plantlings
same,"Mass, dry, sprout, + % to control",[6],38%
same,"Mass, wet, root",[6],1.27 g/100 plantlings
same,"Mass, wet, root, + % to control",[6],32%
same,"Mass, wet, sprout",[6],2.28 g/100 plantlings
same,"Mass, wet, sprout, + % to control",[6],29.5%
same,"Length, root",[7],6.0 cm
same,"Length, root, + % to control",[7],15%
same,"Length, sprout",[7],2.9 cm
same,"Length, sprout, + % to control",[7],16%
same,"Mass, dry, root",[7],0.23 g/100 plantlings
same,"Mass, dry, root, + % to control",[7],35%
same,"Mass, dry, sprout",[7],0.27 g/100 plantlings
same,"Mass, dry, sprout, + % to control",[7],28.5%
same,"Mass, wet, root",[7],1.22 g/100 plantlings
same,"Mass, wet, root, + % to control",[7],27%
same,"Mass, wet, sprout",[7],1.98 g/100 plantlings
same,"Mass, wet, sprout, + % to control",[7],12.5%
same,"Length, root",[8],5.6 cm
same,"Length, root, + % to control",[8],8%
same,"Length, sprout",[8],2.7 cm
same,"Length, sprout, + % to control",[8],8%
same,"Mass, dry, root",[8],0.19 g/100 plantlings
same,"Mass, dry, root, + % to control",[8],12%
same,"Mass, dry, sprout",[8],0.26 g/100 plantlings
same,"Mass, dry, sprout, + % to control",[8],24%
same,"Mass, wet, root",[8],1.06 g/100 plantlings
same,"Mass, wet, root, + % to control",[8],10%
same,"Mass, wet, sprout",[8],1.88 g/100 plantlings
same,"Mass, wet, sprout, + % to control",[8],7%
same,dry mass of the roots increased by,[9],76%
same,dry mass of the sprouts increased by,[9],52%
same,length of the root increased by,[9],27%
same,length of the sprout increased by,[9],28%
same,wet mass of the roots increased by,[9],34%
same,wet mass of the sprouts increased by,[9],34%
